Measured values as given in ChEMBL document CHEMBL4651402, “Screening of ~5500 FDA-approved drugs and clinical candidates for anti-SARS-CoV-2 activity” (2021).
Structures can show the parent of a compound that is named as a salt.

Test system: SARS-CoV-2
Assay: microbe, parasite or virus in culture
Conditions: Severe acute respiratory syndrome coronavirus 2, Vero C1008, 48 h

| Compound | IC50 | IC50 (read-out: pIC50 (converted)) |
| --- | --- | --- |
| CCOC(=O)N1c2ccc(C(F)(F)F)cc2[C@@H](N(Cc2cc(C(F)(F)F)cc(C(F)(F)F)c2)C(=O)OC)C[C@H]1CC [TORCETRAPIB] | > 20 µM | > 20 µM |
| COc1ccc(Cl)c2c1CCCC2N(C)C (configuration not stated) [LOMETRALINE] | > 20 µM | > 20 µM |
| COc1ccc(N2CCN(c3cccc(C)c3)CC2)nn1 | > 20 µM | > 20 µM |
| CC(CN(C)C)C(C)(O)Cc1ccc(Cl)cc1 (configuration not stated) [CLOBUTINOL] | > 20 µM | > 20 µM |
| CN(C)CCOc1ccccc1Cc1ccccc1 [PHENYLTOLOXAMINE] | > 20 µM | > 20 µM |
| CN(C)CCN1C(=O)c2ccccc2N(C)c2ccccc21 [DIBENZEPIN] | > 20 µM | > 20 µM |
| COc1c2ccoc2c(OC)c2oc(=O)ccc12 [ISOPIMPINELLIN] | > 20 µM | > 20 µM |
| CCC[C@@H]1C[C@@H](C(=O)N[C@@H]([C@H]2O[C@H](SC)[C@H](O)[C@@H](O)[C@H]2O)[C@H](C)Cl)N(C)C1 [CLINDAMYCIN HYDROCHLORIDE] | > 20 µM | > 20 µM |
| COC(=O)C(N)CS (configuration not stated) [MECYSTEINE] | > 20 µM | > 20 µM |
| O=c1[nH]c(=O)c2ccccc2o1 | > 20 µM | > 20 µM |
| COc1ccccc1N1CCN(CCn2c(=O)[nH]c3ccccc3c2=O)CC1 | > 20 µM | > 20 µM |
| C[C@H](Oc1ccc2[nH]nc(/C=C/c3cnn(CCO)c3)c2c1)c1c(Cl)cncc1Cl | > 20 µM | > 20 µM |
| CCN(CC)CCOc1ccc2c(c1)C(=O)c1cc(OCCN(CC)CC)ccc1-2 [TILORONE] | > 20 µM | > 20 µM |
| CC(=O)C1CCC2C3CCC4CC(O)CCC4(C)C3CC(O)C12C (configuration not stated) | > 20 µM | > 20 µM |
| O=c1c2ccccc2[se]n1-c1ccccc1 [EBSELEN] | > 20 µM | > 20 µM |
| Cc1cc(C)cc([C@@H]2CCCN2Cc2ccc(Oc3ccc(C(N)=O)cc3F)cc2)c1 [ATICAPRANT] | > 20 µM | > 20 µM |
| Cn1cc(CC(N)C(=O)O)c2ccccc21 (configuration not stated) [1-METHYLTRYPTOPHAN] | > 20 µM | > 20 µM |
| C[C@@H]1CC(=O)NN=C1c1ccc(NN=C(C#N)C#N)cc1 [LEVOSIMENDAN] | > 20 µM | > 20 µM |
| [2H]C([2H])([2H])O[C@@H]1CN(CCCOc2ccc(F)cc2)CC[C@@H]1NC(=O)c1cc(Cl)c(N)cc1OC | > 20 µM | > 20 µM |
| CCOc1ccc(CC2=NCCc3cc(OC(C)C)c(OC(C)C)cc32)cc1OCC [DIPROTEVERINE] | > 20 µM | > 20 µM |
| CN(C)CCc1c[nH]c2ccc(O)cc12 [BUFOTENINE] | > 20 µM | > 20 µM |
| Cc1ccc(C)c(OCCCC(C)(C)C(=O)O)c1 [GEMFIBROZIL] | > 20 µM | > 20 µM |
| CCC1CCCC(OC2CCC(N(C)C)C(C)O2)C(C)C(=O)C2=CC3C(C=C(C)C4CC(OC5OC(C)C(OC)C(OC)C5OC)CC43)C2CC(=O)O1.CCC1CCCC(OC2CCC(N(C)C)C(C)O2)C(C)C(=O)C2=CC3C(C=CC4CC(OC5OC(C)C(OC)C(OC)C5OC)CC43)C2CC(=O)O1 (configuration not stated) | > 20 µM | > 20 µM |
| CNC(C)Cc1ccccc1OC (configuration not stated) [METHOXYPHENAMINE] | > 20 µM | > 20 µM |
| CCCCCCCCCCCCCCCCCCCCCC(=O)O [BEHENIC ACID] | > 20 µM | > 20 µM |
| CC(C)c1nc(-c2ccccc2)cc(-c2ccc(F)cc2)c1/C=C/[C@@H]1C[C@@H](O)CC(=O)O1 [GLENVASTATIN] | > 20 µM | > 20 µM |

| Compound | IC50 | IC50 (read-out: pIC50 (converted)) |
| --- | --- | --- |
| C[C@H](COC(=O)[C@@H](N)Cc1ccc(O)c(O)c1)OC(=O)c1ccccc1 | > 20 µM | > 20 µM |
| C[C@@H](CC(C(N)=O)(c1ccccc1)c1ccccc1)N(C)C | > 20 µM | > 20 µM |
| CO[C@@]12CC[C@@]3(C[C@@H]1[C@](C)(O)C(C)(C)C)[C@H]1Cc4ccc(O)c5c4[C@@]3(CCN1CC1CC1)[C@H]2O5 [BUPRENORPHINE] | > 20 µM | > 20 µM |
| CC1(C)CC(=O)N(CCCCN2CCN(c3ncccn3)CC2)C(=O)C1 [GEPIRONE] | > 20 µM | > 20 µM |
| Oc1ccc(O)cc1 [HYDROQUINONE] | > 20 µM | > 20 µM |
| CC(=O)Nc1ncc([N+](=O)[O-])s1 [NITHIAMIDE] | > 20 µM | > 20 µM |
| Cc1ccc(OCC(O)C(C)NC(C)C)c2c1CCC2 (configuration not stated) [ZENIDOLOL] | > 20 µM | > 20 µM |
| N=C(N)NCC1COc2ccccc2O1 (configuration not stated) [GUANOXAN] | > 20 µM | > 20 µM |
| COc1ccc(CN(C(=O)[C@@H](N)Cc2c(C)cc(C(N)=O)cc2C)[C@H](C)c2nc(-c3ccccc3)c[nH]2)cc1C(=O)O | > 20 µM | > 20 µM |
| O=C(Cn1c2ccccc2c2c(N3CCCC3)nc(N3CCCC3)nc21)N1CCCC1 | > 20 µM | > 20 µM |
| CCOC(=O)COc1ccc2c(C)c(CCN(CC)CC)c(=O)oc2c1 [CHROMONAR] | > 20 µM | > 20 µM |
| C[C@@H]1CC[C@@]2(OC1)OC1CC3C4CC[C@H]5CC(O)CC[C@]5(C)C4CC[C@]3(C)C1[C@@H]2C (some centres not stated) | > 20 µM | > 20 µM |
| CC(=O)Oc1cc(OC(C)CCCc2ccccc2)cc2c1[C@@H]1C[C@H](O)CC[C@H]1[C@H](C)N2 (some centres not stated) [NANTRADOL HYDROCHLORIDE] | > 20 µM | > 20 µM |
| O=C(NCCN1CCN(c2cccc3c2OC[C@@H](CO)O3)CC1)c1ccc(F)cc1 | > 20 µM | > 20 µM |
| CO[C@@H](C(=O)N1Cc2[nH]nc(NC(=O)c3ccc(N4CCN(C)CC4)cc3)c2C1)c1ccccc1 [DANUSERTIB] | > 20 µM | > 20 µM |
| COc1ccc(C(=O)Nc2c(Cl)cncc2Cl)cc1OC1CCCC1 | > 20 µM | > 20 µM |
| C#CCN(C)CCCOc1ccc(Cl)cc1Cl [CLORGILINE] | > 20 µM | > 20 µM |
| CCOC(=O)c1ncc2[nH]c3cccc(OCc4ccccc4)c3c2c1COC | > 20 µM | > 20 µM |
| Clc1ccc(CCCOCCCN2CCCCC2)cc1 [PITOLISANT] | > 20 µM | > 20 µM |
| COc1ccc(CCN(C)CCCN2CCc3cc(OC)c(OC)cc3CC2=O)cc1OC [ZATEBRADINE] | > 20 µM | > 20 µM |
| CCN(CC)CCNC(=O)N(CCS(=O)(=O)c1ccccc1)C(C)C [SURICAINIDE] | > 20 µM | > 20 µM |
| c1ccc2sc(SSc3nc4ccccc4s3)nc2c1 [BENZOTHIAZYL DISULFIDE] | > 20 µM | > 20 µM |
| N[C@H](CO)C(=O)O [(D)-SERINE] | > 20 µM | > 20 µM |
| C=C(C)C1CC=C(CO)CC1 (configuration not stated) | > 20 µM | > 20 µM |
| O=C1NC(=O)[C@H](c2cn3c4c(cccc24)CCC3)[C@H]1c1c[nH]c2ccccc12 | > 20 µM | > 20 µM |
| CC(C)/N=c1\cc2n(-c3ccc(Cl)cc3)c3ccccc3nc-2cc1Nc1ccc(Cl)cc1 [CLOFAZIMINE] | > 20 µM | > 20 µM |

| Compound | IC50 | IC50 (read-out: pIC50 (converted)) |
| --- | --- | --- |
| CCN1CCN(c2cc3c(cc2F)c(=O)c(C(=O)O)cn3C2CC2)CC1 [ENROFLOXACIN] | > 20 µM | > 20 µM |
| COc1ccc(CCNCCC(=O)N2CCCSc3ccccc32)cc1OC | > 20 µM | > 20 µM |
| COc1cc(Nc2ncc3c(n2)-c2ccc(Cl)cc2C(c2c(F)cccc2OC)=NC3)ccc1C(=O)O [ALISERTIB] | > 20 µM | > 20 µM |
| CC[C@H]1/C=C\C=C/C[C@@H](C)[C@H](O)[C@@](C)(O)C(=O)[C@@H](C)[C@H](O)[C@@H](C)C(=O)[C@@H](C)[C@H](O)[C@@H](C)/C=C\C(=O)O[C@@H]2[C@@H](C)[C@H](CC1)O[C@]1(CC[C@H](C)[C@H](C[C@@H](C)O)O1)[C@H]2C | > 20 µM | > 20 µM |
| C[C@H](CN1CCOCC1)C(C(=O)N1CCCC1)(c1ccccc1)c1ccccc1 | > 20 µM | > 20 µM |
| CC1CC[C@@]2(OC1)OC1CC3C4CC[C@H]5CC(O)CCC5(C)C4CC(=O)C3(C)C1C2C (some centres not stated) | > 20 µM | > 20 µM |
| ClCCN(Cc1ccccc1)Cc1ccccc1 | > 20 µM | > 20 µM |
| NC(=O)Nc1ccc(S(=O)(=O)c2ccc(N)cc2)cc1 [AMIDAPSONE] | > 20 µM | > 20 µM |
| CN1CCC2=C(C1)C(c1ccccc1)c1ccccc12 (configuration not stated) [PHENINDAMINE] | > 20 µM | > 20 µM |
| CC(=O)OCC(=O)C1CCC2C3CC[C@H]4CC(O)CCC4(C)C3C(=O)CC12C (some centres not stated) | > 20 µM | > 20 µM |
| CCn1ncnc1COc1nn2c(-c3ccccc3F)nnc2cc1C(C)(C)C [MK-0777] | > 20 µM | > 20 µM |
| NCCc1c[nH]c2ccc(O)cc12 [SEROTONIN] | > 20 µM | > 20 µM |
| Nc1nc(=O)n([C@H]2CC[C@@H](CO)O2)cc1F | > 20 µM | > 20 µM |
| CCN(CC)CCOC(=O)C(C)(c1ccccc1)c1ccccc1 [APROFENE] | > 20 µM | > 20 µM |
| O=c1[nH]c(=O)c2nc3ccccc3nc2[nH]1 [ALLOXAZINE] | > 20 µM | > 20 µM |
| CC(=O)NC(CCC(=O)O)C(=O)O (configuration not stated) [ACEGLUMATE] | > 20 µM | > 20 µM |
| CN(C)CCC=C1c2ccccc2C(C)(C)c2ccccc21 | > 20 µM | > 20 µM |
| Cc1nc(C2CCCCC2)c(-c2ccc(S(N)(=O)=O)c(F)c2)o1 [TILMACOXIB] | > 20 µM | > 20 µM |
| CC(Cc1ccc(C(C)(C)C)cc1)CN1CCCCC1 (configuration not stated) [FENPROPIDIN] | > 20 µM | > 20 µM |
| CC[C@]12CCCN3CCc4c(n(c5ccccc45)[C@@](O)(C(=O)OC)C1)[C@@H]32 [VINCAMINE] | > 20 µM | > 20 µM |
| COc1cc(C(C)=O)ccc1O [APOCYNIN] | > 20 µM | > 20 µM |
| COc1cc2occc2c2oc(=O)ccc12 [ISOBERGAPTENE] | > 20 µM | > 20 µM |
| CN(c1nc2ccccc2s1)C1CCN(C[C@@H](O)COc2ccc(F)c(F)c2)CC1 | > 20 µM | > 20 µM |
| O=C(O)CCC(=O)Nc1ccc(S(=O)(=O)Nc2nccs2)cc1 [SUCCINYLSULFATHIAZOLE] | > 20 µM | > 20 µM |
